Laboratory results published in US11530237B2, “Compositions and methods for treating CNS disorders” (Sage Therapeutics, Inc., priority 2014, dated 2022).

Tests used:
[1] = biological target: α1β2γ2 GABAA receptors (Homo sapiens (Human), UniProt P14867+P47870); assay: Patch clamp electrophysiology (QPatch) of recombinant α1β2γ2 GABAA receptors in LTK cells; format: cell-based; details: 10 μM test article, GABA EC20 = 2 μM, read-out: GABA (α1β2γ2) Qpatch in Ltk, % efficacy at 10 μM
Experimental: (§1) Cellular electrophysiology is used to measure the pharmacological properties of our GABAA receptor modulators in heterologous cell systems. Each compound is tested for its ability to affect GABA mediated currents at a suhmaximal agonist dose (GABA EC20=2 μM). LTK cells are stably transfected with the α1β2γ2 subunits of the GABA receptor and CHO cells are transiently transfected with the α4β3δ subunits via the Lipofecatamine method. Cells were passaged at a confluence of about 50-80% and then seeded onto 35 mm sterile culture dishes containing 2 ml culture complete medium without antibiotics or antimycotics. Confluent clusters of cells are electrically coupled (Pritchett et al., Science, 1988, 242, 1306-1308). Because responses in distant cells are not adequately voltage clamped and because of uncertainties about the extent of coupling (Verdoom et al., Neuron 1990, 4, 919-928), cells were cultivated at a density that enables the recording of single cells (without visible connections to other cells).
(§2) Whole cell currents were measured with HEKA EPC-10 amplifiers using PatchMaster software or by using the high throughput QPatch platform (Sophion). Bath solution for all experiments contained (in mM): NaCl 137 mM, KCl 4 mM, CaCl2 1.8 mM, MgCl2 1 mM, HEPES 10 mM, D-Glucose 10 mM, pH (NaOH) 7.4. In some cases 0.005% cremophor was also added. Intracellular (pipette) solution contained: KCl 130 mM, MgCl2 1 mM, Mg-ATP 5 mM, HEPES 10 mM, EGTA 5 mM, pH 7.2. During experiments, cells and solutions were maintained at room temperature (19° C.-30° C.). For manual patch clamp recordings, cell culture dishes were placed on the dish holder of the microscope and continuously perfused (1 ml/min) with bath solution. After formation of a Gigaohm seal between the patch electrodes and the cell (-ipette resistance range: 2.5 MΩ-6.0 MΩ; seal resistance range:>1 GΩ) the cell membrane across the pipette tip was ruptured to assure electrical access to the cell interior (whole-cell patch-configuration). For experiments using the QPatch system, cells were transferred as suspension to the QPatch system in the bath solution and automated whole cell recordings were performed.
(§3) Cells were voltage clamped at a holding potential of −80 mV. For the analysis of test articles, GABA receptors were stimulated by 2 μM GABA after sequential pre-incubation of increasing concentrations of the test article. Pre-incubation duration was 30 s and the duration of the GABA stimulus was 2s. Test articles were dissolved in DMSO to form stock solutions (10 mM). Test articles were diluted to 0.01, 0.1, 1, and 10 μM in bath solution. All concentrations of test articles were tested on each cell. The relative percentage potentiation was defined as the peak amplitude in response to GABA EC20 in the presence of the test article divided by the peak amplitude in response to GABA EC20 alone, multiplied by 100. For Table 2. GABAA receptors α1β2γ2 and α4β3δ% efficacy: “A” 10-100, “B”>100-500, “C”>500; D indicates the data is not available or has not been determined.

[2] = biological target: α4β3δ GABAA receptors (Homo sapiens (Human), UniProt P28472+P48169); assay: Patch clamp electrophysiology (manual patch) of recombinant α4β3δ GABAA receptors in CHO cells; format: cell-based; details: 10 μM test article, GABA EC20 = 2 μM, read-out: GABA (α4β3δ) Manual patch in CHO, % efficacy at 10 μM
Experimental: as §1, §2, §3

[3] = test system: PTZ-treated mice; assay: Acute PTZ method (pentylenetetrazol-induced seizure assay); format: in vivo; details: Mus musculus, lowest dose with significant effect on latency to tonic seizures, PO, read-out: Anticonvulsive Effect Dose (minimal effective anticonvulsant dose)
Experimental: The anticonvulsant effect of test compounds were assessed in a pentylenetetazol-induced seizure assay in mice similar to methods described in Giardina & Gasior (Curr Protoc Pharmacol. 2009). Male CD-1 mice were housed in groups of five under controlled conditions (temperature of 22±2° C. and 12:12 light-dark cycle, lights on at 8:00 am) and water and food were available ad libitum. The mice were housed for 1 week prior to behavioral testing, at which time they weighed 25-35 g. Pentylenetetrazol (PTZ, Sigma) was dissolved in sterile 0.9% saline at a concentration of 12 mg/mL concentration for subcutaneous administration. Test compounds were formulated and administered via oral gavage or intraperitoneal injection at a predetermined time-point (typically 30 or 60 minutes) prior to PTZ injection. All solutions were made fresh and given in a volume corresponding to 10 ml/kg body weight.
Mice were acclimated to the test room for at least 30 min before compound administration. Mice were randomized into at least four test groups (vehicle and at least three doses of the test compound) with 10 mice per group. […] Following the drug pretreatment time the mice were injected s.c. with PTZ (120 mg/kg). Immediately following the PTZ injection, mice were individually placed into observation chambers (25×15×15 cm) and a three-channel timer was started. Each mouse was continuously observed for 30 min and the following behaviors were recorded by observers blinded to the treatments: 1) latency to clonic convulsions that persist for 3 sec and followed by an absence of righting reflex 2) latency to tonic convulsions, characterized by the rigid extension of all four limbs that exceeded a 90 degree angle with the body 3) latency to death 4) number of clonic and tonic convulsions. Data are presented as mean±S.E.M and one-way ‘nalysis of vari’nce with Dunnett's or Bonferroni's post-hoc test was used to detect significant differences in latency and number between the vehicle and dose group, p values<0.05 were regarded as statistically significant.

## CO[C@H]1C[C@@]2(C)[C@@H](CC[C@@H]3[C@@H]2CC[C@]2(C)[C@@H](C(=O)Cn4nccn4)CC[C@@H]32)C[C@@H]1O [Compound 2]
[1]
  Emax at 10 µM: 100 to 500%
[2]
  Emax at 10 µM: 100 to 500%

## C[C@@]1(O)CC[C@@]2(C)[C@H](CC[C@@H]3[C@@H]2CC[C@]2(C)[C@@H](C(=O)Cn4ccc(C(F)(F)F)n4)CC[C@@H]32)C1 [Compound 19]
[3]
  minimal effective dose: ≤ 1 mg/kg

## C[C@@]1(O)CC[C@@]2(C)[C@H](CC[C@@H]3[C@@H]2CC[C@]2(C)[C@@H](C(=O)Cn4nc5cc(F)cc(F)c5n4)CC[C@@H]32)C1 [Compound 28]
[3]
  minimal effective dose: ≤ 1 mg/kg

## Cc1nnnn1CC(=O)[C@H]1CC[C@H]2[C@@H]3CC[C@@H]4C[C@](C)(O)CC[C@]4(C)[C@H]3CC[C@]12C [Compound 31]
[3]
  minimal effective dose: ≥ 5 mg/kg

## Cc1nnn(CC(=O)[C@@H]2CC[C@H]3[C@@H]4CC[C@@H]5C[C@](C)(O)CC[C@]5(C)[C@H]4CC[C@]23C)n1 [Compound 32]
[3]
  minimal effective dose: ≤ 1 mg/kg

## C[C@@]1(O)CC[C@@]2(C)[C@H](CC[C@@H]3[C@@H]2CC[C@]2(C)[C@@H](C(=O)Cn4ncnn4)CC[C@@H]32)C1 [Compound 54]
[3]
  minimal effective dose: 1 to 5 mg/kg

## C[C@@]1(O)CC[C@@]2(C)[C@@H](CC[C@@H]3[C@@H]2CC[C@]2(C)[C@@H](C(=O)Cn4ncnn4)CC[C@@H]32)C1 [Compound 118]
[1]
  Emax at 10 µM: 100 to 500%
[2]
  Emax at 10 µM: > 500%

## C[C@@]1(O)CC[C@@]2(C)[C@@H](CC[C@@H]3[C@@H]2CC[C@]2(C)[C@@H](C(=O)Cn4ccc(C#N)n4)CC[C@@H]32)C1 [Compound 121]
[1]
  Emax at 10 µM: > 500%
[2]
  Emax at 10 µM: > 500%

## C[C@@]1(O)CC[C@@]2(C)[C@@H](CC[C@@H]3[C@@H]2CC[C@]2(C)[C@@H](C(=O)Cn4nnc5cc(F)c(F)cc54)CC[C@@H]32)C1 [Compound 124]
[1]
  Emax at 10 µM: 100 to 500%
[2]
  Emax at 10 µM: > 500%

## C[C@@]1(O)CC[C@@]2(C)[C@H](CC[C@@H]3[C@@H]2CC[C@]2(C)[C@@H](C(=O)Cn4cc(Cl)cn4)CC[C@@H]32)C1 [Compound 133]
[1]
  Emax at 10 µM: 100 to 500%
[2]
  Emax at 10 µM: > 500%

## C[C@@]1(O)CC[C@@]2(C)[C@H](CC[C@@H]3[C@@H]2CC[C@]2(C)[C@@H](C(=O)Cn4cc(C(F)(F)F)cn4)CC[C@@H]32)C1 [Compound 134]
[1]
  Emax at 10 µM: > 500%
[2]
  Emax at 10 µM: > 500%

## COC[C@@]1(O)CC[C@@]2(C)[C@@H](CC[C@@H]3[C@@H]2CC[C@]2(C)[C@@H](C(=O)Cn4cc(C#N)cn4)CC[C@@H]32)C1 [Compound 142]
[1]
  Emax at 10 µM: > 500%
[2]
  Emax at 10 µM: > 500%

## C[C@@]1(O)CC[C@@]2(C)[C@H](CC[C@@H]3[C@@H]2CC[C@]2(C)[C@@H](C(=O)Cn4ccnc4C#N)CC[C@@H]32)C1 [Compound 143]
[1]
  Emax at 10 µM: > 500%
[2]
  Emax at 10 µM: > 500%

## COC[C@@]1(O)CC[C@@]2(C)[C@@H](CC[C@@H]3[C@@H]2CC[C@]2(C)[C@@H](C(=O)Cn4nnnc4C)CC[C@@H]32)C1 [Compound 193]
[1]
  Emax at 10 µM: > 500%
[3]
  minimal effective dose: 1 to 5 mg/kg
[2]
  Emax at 10 µM: > 500%

## COC[C@@]1(O)CC[C@@]2(C)[C@@H](CC[C@@H]3[C@@H]2CC[C@]2(C)[C@@H](C(=O)Cn4nnc(C)n4)CC[C@@H]32)C1 [Compound 194]
[3]
  minimal effective dose: ≤ 1 mg/kg
[2]
  Emax at 10 µM: > 500%

## Cc1nnn(CC(=O)[C@H]2CC[C@H]3[C@@H]4CC[C@H]5C[C@](C)(O)CC[C@]5(C)[C@H]4CC[C@]23C)n1 [Compound 206]
[3]
  minimal effective dose: ≤ 1 mg/kg
[2]
  Emax at 10 µM: > 500%

## C[C@@]1(O)CC[C@@]2(C)[C@H](CC[C@@H]3[C@@H]2CC[C@]2(C)[C@@H](C(=O)Cn4nccn4)CC[C@@H]32)C1 [Compound 207]
[3]
  minimal effective dose: ≥ 5 mg/kg
[2]
  Emax at 10 µM: > 500%

## C[C@@]1(O)CC[C@@]2(C)[C@@H](CC[C@@H]3[C@@H]2CC[C@]2(C)[C@@H](C(=O)Cn4nc5cc(F)cc(F)c5n4)CC[C@@H]32)C1 [Compound 234]
[2]
  Emax at 10 µM: 100 to 500%
